Laboratory results taken from patent US7232833B2, “4-substituted quinoline derivatives, method and intermediates for their preparation and pharmaceutical compositions containing them” (Novexel, priority 2003, dated 2007).
Values after ≈ are worked out from the molar mass of the structure shown. Where a name gives a salt, the structure may show the parent alone. Blank lines part the entries; values can stand above or below the compound they belong to.

Columns and labels:
E. faecalis ATCC29212 = assay: MIC by dilutions in agar medium (NCCLS); assay type: cell-based; settings: Enterococcus faecalis, Gram-positive, at 24 hours, agar dilution
Text: (§1) a) Activity in vitro The method of dilutions in agar medium in agreement with the NCCLS recommendations is used for the determination of the minimum inhibitory concentrations (MIC) expressed in μg/ml.

[1] = test system: M. catarrhalis IPA151 sensitive; assay: MIC by dilutions in agar medium (NCCLS); assay type: cell-based; settings: Moraxella catarrhalis, IPA151SENSITIVE; Gram-negative, at 48 hours, agar dilution
Text: as §1

[2] = test system: S. aureus AS 5155 methicillin resistant; assay: MIC by dilutions in agar medium (NCCLS); assay type: cell-based; settings: Staphylococcus aureus; Gram-positive, at 24 hours, agar dilution
Text: as §1

[3] = test system: S. aureus IP8203 sensitive; assay: MIC by dilutions in agar medium (NCCLS); assay type: cell-based; settings: Staphylococcus aureus; Gram-positive, at 24 hours, agar dilution
Text: as §1

[4] = test system: S. pneumoniae 6254-01 MLSB resistant; assay: MIC by dilutions in agar medium (NCCLS); assay type: cell-based; settings: Streptococcus pneumoniae; Gram-positive, at 24 hours, agar dilution
Text: as §1

melting point: 102 °C
SMILES: COc1ccc2ncc(F)c(CCCC3(C(=O)O)CCN(C/C=C/c4cc(Cl)ccc4Cl)C3)c2c1 (single isomer, unassigned) [Example 36, 1-[(2E)-3-(2,5-dichlorophenyl)-2-propenyl]-3-[3-(3-fluoro-6-methoxyquinolin-4-yl)propyl]-3-pyrrolidinecarboxylic acid]

melting point: 157 °C
SMILES: COc1ccc2ncc(F)c(CCCC3(C(=O)O)CCN(CCOc4cc(F)ccc4F)C3)c2c1 (single isomer, unassigned) [Example 30, 1-[2-(2,5-difluorophenoxy)ethyl]-3-[3-(3-fluoro-6-methoxyquinolin-4-yl)propyl]-3-pyrrolidinecarboxylic acid]

melting point: 110 °C
SMILES: COc1ccc2ncc(F)c(CCCC3(C(=O)O)CCN(C/C=C/c4cc(F)c(F)c(F)c4)C3)c2c1 (single isomer, unassigned) [Example 49, 3-[3-(3-fluoro-6-methoxyquinolin-4-yl)propyl]-1-[(2E)-3-(3,4,5-trifluorophenyl)-2-propenyl]-3-pyrrolidinecarboxylic acid]

melting point: 172 °C
SMILES: COc1ccc2ncc(F)c(CCCC3(C(=O)O)CCN(CCSc4cccs4)C3)c2c1 (single isomer, unassigned) [Example 18, 3-[3-(3-fluoro-6-methoxyquinolin-4-yl)propyl]-1-[2-(2-thienylthio)ethyl]-3-pyrrolidinecarboxylic acid]

melting point: 106 °C
SMILES: COc1ccc2ncc(F)c(CCCC3(C(=O)O)CCN(CCSc4c(F)cccc4F)C3)c2c1 (single isomer, unassigned) [Example 57, 1-[2-[(2,6-difluorophenyl)thio]ethyl]-3-[3-(3-fluoro-6-methoxyquinolin-4-yl)propyl]-3-pyrrolidinecarboxylic acid]

melting point: 160 °C
SMILES: COc1ccc2ncc(F)c(CCCC3(C(=O)O)CCN(CCSc4cccs4)C3)c2c1 (single isomer, unassigned) [Example 17, 3-[3-(3-fluoro-6-methoxyquinolin-4-yl)propyl]-1-[2-(2-thienylthio)ethyl]-3-pyrrolidinecarboxylic acid]

MIC (E. faecalis ATCC29212): 0.25 to 32 µg/mL (≈ 0.516 to 66 µM)
MIC [1]: 0.12 to 2 µg/mL (≈ 0.248 to 4.13 µM)
MIC [2]: 0.015 to 4 µg/mL (≈ 0.031 to 8.26 µM)
MIC [3]: 0.015 to 4 µg/mL (≈ 0.031 to 8.26 µM)
MIC [4]: 0.015 to 4 µg/mL (≈ 0.031 to 8.26 µM)
melting point: 76 to 80 °C
SMILES: COc1ccc2ncc(F)c(CCCC3(C(=O)O)CCN(C/C=C/c4cc(F)ccc4F)C3)c2c1 (single isomer, unassigned) [Example 3, 1-[(2E)-3-(2,5-difluorophenyl)-2-propenyl]-3-[3-(3-fluoro-6-methoxyquinolin-4-yl)propyl]-3-pyrrolidinecarboxylic acid]

melting point: 96 °C
SMILES: COc1ccc2ncc(F)c(CCCC3(C(=O)O)CCN(C/C=C/c4c(F)cccc4F)C3)c2c1 (single isomer, unassigned) (as salt: hydrochloride) [Example 41, 3-[3-(3-fluoro-6-methoxyquinolin-4-yl)propyl]-1-[(2E)-3-(2,6-difluorophenyl)-2-propenyl]-3-pyrrolidinecarboxylic acid]

melting point: 148 °C
SMILES: COc1ccc2ncc(F)c(CCCC3(C(=O)O)CCN(C/C=C/c4cc(F)c(F)c(F)c4)C3)c2c1 (single isomer, unassigned) [Example 50, 3-[3-(3-fluoro-6-methoxyquinolin-4-yl)propyl]-1-[(2E)-3-(3,4,5-trifluorophenyl)-2-propenyl]-3-pyrrolidinecarboxylic acid]

MIC (E. faecalis ATCC29212): 0.25 to 32 µg/mL (≈ 0.501 to 64.2 µM)
MIC [1]: 0.12 to 2 µg/mL (≈ 0.241 to 4.01 µM)
MIC [2]: 0.015 to 4 µg/mL (≈ 0.0301 to 8.02 µM)
MIC [3]: 0.015 to 4 µg/mL (≈ 0.0301 to 8.02 µM)
MIC [4]: 0.015 to 4 µg/mL (≈ 0.0301 to 8.02 µM)
SMILES: COC(=O)C1(CCCc2c(F)cnc3ccc(OC)cc23)CCN(C/C=C/c2cc(F)ccc2F)C1 (racemic) [Example 2, Methyl (±)-1-[(2E)-3-(2,5-difluorophenyl)-2-propenyl]-3-[3-(3-fluoro-6-methoxyquinolin-4-yl)propyl]-3-pyrrolidinecarboxylate]

melting point: 211 °C
SMILES: COc1ccc2ncc(F)c(CCCC3(C(=O)O)CN(C/C=C/c4cc(F)ccc4F)C3)c2c1 [Example 11, 1-[(2E)-3-(2,5-difluorophenyl)-2-propenyl]-3-[3-(3-fluoro-6-methoxyquinolin-4-yl)propyl]-3-azetidinecarboxylic acid]

MIC (E. faecalis ATCC29212): 0.25 to 32 µg/mL (≈ 0.516 to 66 µM)
MIC [1]: 0.12 to 2 µg/mL (≈ 0.248 to 4.13 µM)
MIC [2]: 0.015 to 4 µg/mL (≈ 0.031 to 8.26 µM)
MIC [3]: 0.015 to 4 µg/mL (≈ 0.031 to 8.26 µM)
MIC [4]: 0.015 to 4 µg/mL (≈ 0.031 to 8.26 µM)
melting point: 77 °C
SMILES: COc1ccc2ncc(F)c(CCCC3(C(=O)O)CCN(C/C=C/c4cc(F)ccc4F)C3)c2c1 (racemic) [Example 1, (±)-1-[(2E)-3-(2,5-difluorophenyl)-2-propenyl]-3-[3-(3-fluoro-6-methoxyquinolin-4-yl)propyl]-3-pyrrolidinecarboxylic acid]

melting point: 77 °C
SMILES: COc1ccc2ncc(Cl)c(CCCC3(C(=O)O)CCN(C/C=C/c4cc(F)ccc4F)C3)c2c1 (racemic) (as salt: sodium) [Example 15, (±)-3-[3-(3-chloro-6-methoxyquinolin-4-yl)propyl]-1-[(2E)-3-(2,5-difluorophenyl)-2-propenyl]-3-pyrrolidinecarboxylic acid]

melting point: 80 to 84 °C
SMILES: COc1ccc2ncc(F)c(CCCC3(C(=O)O)CCN(C/C=C/c4cc(F)ccc4F)C3)c2c1 (single isomer, unassigned) [Example 4, 1-[(2E)-3-(2,5-difluorophenyl)-2-propenyl]-3-[3-(3-fluoro-6-methoxyquinolin-4-yl)propyl]-3-pyrrolidinecarboxylic acid]
